Assay results published in US4598095A (priority 1982, dated 1986).
Converted amounts (≈) assume the structure as drawn. Structures can show the parent of a compound that is named as a salt.

Key:
[1] = tested on: influenza virus, Adachi strain of A2-type; assay: microbe, parasite or virus in culture; assay type: cell-based; details: for virucidal index: 50% toxicity concentration / 50% virucidal concentration; for EC50: 2 h, read-out: 50% Virucidal Concentration
[2] = tested on: influenza virus, Adachi strain of A2-type; assay: microbe, parasite or virus in culture; assay type: cell-based; details: for virus proliferation-inhibiting index: 50% toxicity concentration / 50% virus proliferation-inhibiting concentration, 2880 min; for IC50: 48 h, read-out: 50% Virus Proliferation-Inhibiting Concentration
[3] = tested on: rice blast fungus (Pyricularia oryzae); assay: whole plant or invertebrate; assay type: in vivo; details: 168 h, read-out: Protective Value
[4] = in vitro; details: chicken, chorioallantoic membrane
[5] = tested on: rice blast fungus (Pyricularia oryzae); assay type: in vivo; details: low dosage; for Protective Value: 100 ppm; for controlling effect against rice blast: Table 4
[6] = tested on: plant pathogenic fungi; details: foregoing literature; cited from earlier work

Structure (SMILES)	virus proliferation-inhibiting index [2]	IC50 [2] [µg/mL]	pest or weed control at 400 ppm [3] [%]	CC50 at 48 h [4] [µg/mL]	further results
CSC(=N)NN=Cc1ccc(Cl)cc1Cl [Compound 8]	35.7	19.8 (≈ 75.5 µM)	97	706 (≈ 2690 µM)	virucidal index [1]: 15.2; EC50 [1]: 46.4 µg/mL (≈ 177 µM)
N=C(NN=Cc1ccccc1)SCc1ccccc1 [Compound 2, Benzaldehyde-S-benzylisothiosemicarbazone Hydrochloride]	–	–	85	–	–
CSC(=N)NN=Cc1ccc(C)cc1 [Compound 17]	–	–	100	–	–
CSC(=N)NN=C(C)C=Cc1ccc(Cl)cc1 [Compound 42]	7.1	100 (≈ 373 µM)	88	710 (≈ 2650 µM)	virucidal index [1]: 4.2; EC50 [1]: 170 µg/mL (≈ 635 µM)
CSC(=N)NN=C(C)c1cccc(Cl)c1 [Compound 24]	28.3	25 (≈ 103 µM)	89	708 (≈ 2930 µM)	virucidal index [1]: 3.3; EC50 [1]: 215 µg/mL (≈ 889 µM)
CSC(=N)NN=Cc1cc(Cl)cc(Cl)c1 [Compound 13]	14.0	50 (≈ 191 µM)	100	700 (≈ 2670 µM)	–
NC12CC3CC(CC(C3)C1)C2 [Am, Adamantaneamine Hydrochloride, reference compound]	30.4	32.9	–	1000	virucidal index [1]: 1.5; EC50 [1]: 649 µg/mL
CSC(=N)NN=Cc1ccccc1Cl [Compound 3]	–	–	96	–	–
CCCCOc1ccc(C=CC(C)=NNC(=N)SC)cc1 [Compound 44]	–	–	100	–	–
CCCCSC(=N)NN=Cc1ccc(OCC)cc1 [Compound 19]	> 25.2	39.7 (≈ 142 µM)	100	> 1000	virucidal index [1]: 3.2; EC50 [1]: 316 µg/mL (≈ 1130 µM); Protective Value [5]: 93%; controlling effect against rice blast [5]: very excellent controlling effects; effect against plant pathogenic fungi in vitro [6]: never been observed to have effects of inhibiting proliferation of any of the pathogenic fungi
CN=C(NN=Cc1ccc(Cl)cc1)SC [Compound 7]	–	–	75	–	–
CSC(=N)NN=C(C)c1ccccc1 [Compound 21]	12.6	12.5 (≈ 60.3 µM)	100	158 (≈ 760 µM)	–
CCOc1ccc(C(C)=NNC(=N)SC)cc1 [Compound 37]	7.1	12.5 (≈ 49.7 µM)	89	88.8 (≈ 353 µM)	–
CCCCSC(=N)NN=Cc1ccc(Cl)cc1Cl [Compound 9, 2',4'-Dichlorobenzaldehyde-S-butylisothiosemicarbazone Hydrochloride]	5.5	115	100	632	virucidal index [1]: 19.9; EC50 [1]: 31.6 µg/mL
CCCCSC(=N)NN=Cc1ccc(F)cc1 [Compound 15]	–	–	93	–	–
CSC(=N)NN=Cc1ccc(Cl)c(Cl)c1 [Compound 11, 3',4'-Dichlorobenzaldehyde-S-methylisothiosemicarbazone Hydrochloride]	33.2	21.3	98	707	virucidal index [1]: 15.2; EC50 [1]: 46.4 µg/mL
CCCCSC(=N)NN=C(C)c1ccc(OC)cc1 [Compound 36]	–	–	95	–	–
CSC(=N)NN=C(C)c1ccc(O)cc1 [Compound 34]	–	–	93	–	–
CN=C(NN=Cc1cccc(Cl)c1)SC [Compound 5, 3'-Chlorobenzaldehyde-S-methyl-4-N-methylisothiosemicarbazone Hydrochloride]	–	–	93	–	–
CCOc1ccc(C=NNC(=N)SC)cc1 [Compound 18]	–	–	100	–	Protective Value [5]: 99%; controlling effect against rice blast [5]: very excellent controlling effects; effect against plant pathogenic fungi in vitro [6]: never been observed to have effects of inhibiting proliferation of any of the pathogenic fungi
CSC(=N)NN=C(C)c1ccc(Cl)cc1Cl [Compound 29]	7.7	23.2 (≈ 84 µM)	90	180 (≈ 652 µM)	virucidal index [1]: 1.8; EC50 [1]: 100 µg/mL (≈ 362 µM)
CSC(=N)NN=Cc1cc(Cl)cc(Cl)c1O [Compound 14]	> 66.7	15 (≈ 53.9 µM)	98	> 1000	–

Structure (SMILES)	virus proliferation-inhibiting index [2]	IC50 [2] [µg/mL]	pest or weed control at 400 ppm [3] [%]	CC50 at 48 h [4] [µg/mL]	further results
CCCCCCCCOc1ccc(C(C)=NNC(=N)SC)cc1 [Compound 40]	–	–	85	–	–
CCCC(=NNC(=N)SC)c1ccccc1 [Compound 23]	–	–	93	–	–
CSC(=N)NN=C(C)c1ccc(C)cc1 [Compound 33]	20.0	50 (≈ 226 µM)	97	1000 (≈ 4520 µM)	–
CCCCCCCCCCOc1ccc(C(C)=NNC(=N)SC)cc1 [Compound 41]	< 5.0	> 200	94	1000 (≈ 2750 µM)	virucidal index [1]: 6.9; EC50 [1]: 145 µg/mL (≈ 399 µM)
CSC(=N)NN=Cc1ccc(Cl)cc1 [Compound 6, 4'-Chlorobenzaldehyde-S-methylisothiosemicarbazone Hydrochloride]	–	–	100	–	–
CSC(=N)NN=Cc1ccccc1 [Compound 1]	–	–	90	–	–
CSC(=N)NN=C(C)c1ccc(Cl)c(Cl)c1Cl [Compound 31]	16.6	21.3 (≈ 68.6 µM)	89	354 (≈ 1140 µM)	–
CCCCCOc1ccc(C(C)=NNC(=N)SC)cc1 [Compound 38]	> 8.0	126 (≈ 429 µM)	100	> 1000	effect against plant pathogenic fungi in vitro [6]: inactive against all of the plant pathogenic fungi
CCCCOc1ccc(C=NNC(=N)SC)cc1 [Compound 20]	–	–	99	–	Protective Value [5]: 100%; controlling effect against rice blast [5]: very excellent controlling effects; effect against plant pathogenic fungi in vitro [6]: never been observed to have effects of inhibiting proliferation of any of the pathogenic fungi
CCCCSC(=N)NN=C(C)c1ccc(Cl)c(Cl)c1Cl [Compound 32]	–	–	96	–	–
CCCCCOc1ccc(C(C)=NNC(=N)SCCCC)cc1 [Compound 39]	–	–	100	–	–
CCCC(=NNC(=NC)SC)c1ccc(Cl)cc1 [Compound 28]	12.6	63 (≈ 222 µM)	94	794 (≈ 2800 µM)	–
CCCCCCCCOc1ccc(C=CC(C)=NNC(=N)SC)cc1OC [Compound 47]	–	–	96	–	–
CCCC(=NNC(=N)SC)c1ccc(Cl)cc1 [Compound 27]	–	–	100	–	–
CSC(=N)NN=Cc1cccc(Br)c1 [Compound 16]	–	–	100	–	–
CCC(=NNC(=N)SC)c1ccc(Cl)cc1 [Compound 26]	–	–	100	–	–
CC(=NNC(=N)SCc1ccccc1)c1ccccc1 [Compound 22]	–	–	90	–	–
CCCCCCOc1ccc(C=CC(C)=NNC(=N)SC)cc1 [Compound 45]	–	–	96	–	–
COc1ccc(C(C)=NNC(=N)SC)cc1 [Compound 35]	7.0	14.2 (≈ 59.8 µM)	100	99.4 (≈ 419 µM)	–
CCCCCCCCCCCCOc1ccc(C=CC(C)=NNC(=N)SC)cc1 [Compound 46]	> 11.7	85.2 (≈ 204 µM)	77	> 1000	virucidal index [1]: > 31.6; EC50 [1]: 31.6 µg/mL (≈ 75.7 µM)
CSC(=N)NN=Cc1c(Cl)cccc1Cl [Compound 12]	–	–	100	–	–
